# System: LpxC enzyme
# Experiment: LpxC enzyme assay (RapidFire high-throughput mass spectrometry)
# Type: biochemical
# Details: concentration 0.10 (unit not given)
# Summary of the method: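 0.2 nM enzyme with 1.0 μM UDP-3-O-(R-3-hydroxymyristoyl)-N-acetylglucosamine in 25 mM HEPES pH 7.3, 150 mM NaCl, 2.0 mM DTT, 0.01% BSA, 2% DMSO; 60 min at room temperature, quenched with HCl. Substrate and product quantified by RapidFire mass spectrometry; percent conversion gives percent inhibition versus DMSO control.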
row,SMILES,LpxC enzyme assay rating (% inhibition at indicated concentrations)
1,O=C(Nc1ccc(-c2ccccc2)cc1)[C@H](O)[C@@H](O)C(=O)N1CCCC1 [Compound 64],B (10-30% inhibition)
2,O=C(Nc1ccc(-c2ccc(C(F)(F)F)cc2)cc1)[C@H](O)[C@@H](O)C(=O)N1CCCC1 [Compound 65],B (10-30% inhibition)
3,CCCCc1ccc(NC(=O)[C@H](O)[C@@H](O)C(=O)N2CCCC2)cc1 [Compound 66],C (less than 10% inhibition)
4,CCCc1ccc(NC(=O)[C@H](O)[C@@H](O)C(=O)N2CCCC2)cc1 [Compound 67],B (10-30% inhibition)
5,CCC(C)c1ccc(NC(=O)[C@H](O)[C@@H](O)C(=O)N2CCCC2)cc1 (stereo partly drawn) [Compound 68],C (less than 10% inhibition)
6,O=C([C@H](O)[C@@H](O)C(=O)N1CCC(c2ccc(C(F)(F)F)cc2)CC1)N1CCCC1 [Compound 69],C (less than 10% inhibition)

# Same assay, conditions: concentration 0.20 (unit not given)
row,SMILES,LpxC enzyme assay rating (% inhibition at indicated concentrations)
1,O=C(Nc1ccc(-c2ccccc2)cc1)[C@H](O)[C@@H](O)C(=O)N1CCCC1 [Compound 64],B (10-30% inhibition)
2,O=C(Nc1ccc(-c2ccc(C(F)(F)F)cc2)cc1)[C@H](O)[C@@H](O)C(=O)N1CCCC1 [Compound 65],B (10-30% inhibition)
3,CCCCc1ccc(NC(=O)[C@H](O)[C@@H](O)C(=O)N2CCCC2)cc1 [Compound 66],C (less than 10% inhibition)
4,CCCc1ccc(NC(=O)[C@H](O)[C@@H](O)C(=O)N2CCCC2)cc1 [Compound 67],B (10-30% inhibition)
5,CCC(C)c1ccc(NC(=O)[C@H](O)[C@@H](O)C(=O)N2CCCC2)cc1 (stereo partly drawn) [Compound 68],C (less than 10% inhibition)
6,O=C([C@H](O)[C@@H](O)C(=O)N1CCC(c2ccc(C(F)(F)F)cc2)CC1)N1CCCC1 [Compound 69],C (less than 10% inhibition)

# Same assay, conditions: concentration 0.39 (unit not given)
row,SMILES,LpxC enzyme assay rating (% inhibition at indicated concentrations)
1,O=C(Nc1ccc(-c2ccccc2)cc1)[C@H](O)[C@@H](O)C(=O)N1CCCC1 [Compound 64],C (less than 10% inhibition)
2,O=C(Nc1ccc(-c2ccc(C(F)(F)F)cc2)cc1)[C@H](O)[C@@H](O)C(=O)N1CCCC1 [Compound 65],B (10-30% inhibition)
3,CCCCc1ccc(NC(=O)[C@H](O)[C@@H](O)C(=O)N2CCCC2)cc1 [Compound 66],B (10-30% inhibition)
4,CCCc1ccc(NC(=O)[C@H](O)[C@@H](O)C(=O)N2CCCC2)cc1 [Compound 67],B (10-30% inhibition)
5,CCC(C)c1ccc(NC(=O)[C@H](O)[C@@H](O)C(=O)N2CCCC2)cc1 (stereo partly drawn) [Compound 68],C (less than 10% inhibition)
6,O=C([C@H](O)[C@@H](O)C(=O)N1CCC(c2ccc(C(F)(F)F)cc2)CC1)N1CCCC1 [Compound 69],C (less than 10% inhibition)

# Same assay, conditions: concentration 0.78 (unit not given)
row,SMILES,LpxC enzyme assay rating (% inhibition at indicated concentrations)
1,O=C(Nc1ccc(-c2ccccc2)cc1)[C@H](O)[C@@H](O)C(=O)N1CCCC1 [Compound 64],B (10-30% inhibition)
2,O=C(Nc1ccc(-c2ccc(C(F)(F)F)cc2)cc1)[C@H](O)[C@@H](O)C(=O)N1CCCC1 [Compound 65],C (less than 10% inhibition)
3,CCCCc1ccc(NC(=O)[C@H](O)[C@@H](O)C(=O)N2CCCC2)cc1 [Compound 66],C (less than 10% inhibition)
4,CCCc1ccc(NC(=O)[C@H](O)[C@@H](O)C(=O)N2CCCC2)cc1 [Compound 67],C (less than 10% inhibition)
5,CCC(C)c1ccc(NC(=O)[C@H](O)[C@@H](O)C(=O)N2CCCC2)cc1 (stereo partly drawn) [Compound 68],C (less than 10% inhibition)
6,O=C([C@H](O)[C@@H](O)C(=O)N1CCC(c2ccc(C(F)(F)F)cc2)CC1)N1CCCC1 [Compound 69],C (less than 10% inhibition)

# Same assay, conditions: concentration 1.56 (unit not given)
row,SMILES,LpxC enzyme assay rating (% inhibition at indicated concentrations)
1,O=C(Nc1ccc(-c2ccccc2)cc1)[C@H](O)[C@@H](O)C(=O)N1CCCC1 [Compound 64],C (less than 10% inhibition)
2,O=C(Nc1ccc(-c2ccc(C(F)(F)F)cc2)cc1)[C@H](O)[C@@H](O)C(=O)N1CCCC1 [Compound 65],B (10-30% inhibition)
3,CCCCc1ccc(NC(=O)[C@H](O)[C@@H](O)C(=O)N2CCCC2)cc1 [Compound 66],B (10-30% inhibition)
4,CCCc1ccc(NC(=O)[C@H](O)[C@@H](O)C(=O)N2CCCC2)cc1 [Compound 67],C (less than 10% inhibition)
5,CCC(C)c1ccc(NC(=O)[C@H](O)[C@@H](O)C(=O)N2CCCC2)cc1 (stereo partly drawn) [Compound 68],C (less than 10% inhibition)
6,O=C([C@H](O)[C@@H](O)C(=O)N1CCC(c2ccc(C(F)(F)F)cc2)CC1)N1CCCC1 [Compound 69],C (less than 10% inhibition)

# Same assay, conditions: concentration 3.13 (unit not given)
row,SMILES,LpxC enzyme assay rating (% inhibition at indicated concentrations)
1,O=C(Nc1ccc(-c2ccccc2)cc1)[C@H](O)[C@@H](O)C(=O)N1CCCC1 [Compound 64],B (10-30% inhibition)
2,O=C(Nc1ccc(-c2ccc(C(F)(F)F)cc2)cc1)[C@H](O)[C@@H](O)C(=O)N1CCCC1 [Compound 65],B (10-30% inhibition)
3,CCCCc1ccc(NC(=O)[C@H](O)[C@@H](O)C(=O)N2CCCC2)cc1 [Compound 66],B (10-30% inhibition)
4,CCCc1ccc(NC(=O)[C@H](O)[C@@H](O)C(=O)N2CCCC2)cc1 [Compound 67],C (less than 10% inhibition)
5,CCC(C)c1ccc(NC(=O)[C@H](O)[C@@H](O)C(=O)N2CCCC2)cc1 (stereo partly drawn) [Compound 68],B (10-30% inhibition)
6,O=C([C@H](O)[C@@H](O)C(=O)N1CCC(c2ccc(C(F)(F)F)cc2)CC1)N1CCCC1 [Compound 69],C (less than 10% inhibition)

# Same assay, conditions: concentration 6.25 (unit not given)
row,SMILES,LpxC enzyme assay rating (% inhibition at indicated concentrations)
1,O=C(Nc1ccc(-c2ccccc2)cc1)[C@H](O)[C@@H](O)C(=O)N1CCCC1 [Compound 64],B (10-30% inhibition)
2,O=C(Nc1ccc(-c2ccc(C(F)(F)F)cc2)cc1)[C@H](O)[C@@H](O)C(=O)N1CCCC1 [Compound 65],B (10-30% inhibition)
3,CCCCc1ccc(NC(=O)[C@H](O)[C@@H](O)C(=O)N2CCCC2)cc1 [Compound 66],B (10-30% inhibition)
4,CCCc1ccc(NC(=O)[C@H](O)[C@@H](O)C(=O)N2CCCC2)cc1 [Compound 67],B (10-30% inhibition)
5,CCC(C)c1ccc(NC(=O)[C@H](O)[C@@H](O)C(=O)N2CCCC2)cc1 (stereo partly drawn) [Compound 68],B (10-30% inhibition)
6,O=C([C@H](O)[C@@H](O)C(=O)N1CCC(c2ccc(C(F)(F)F)cc2)CC1)N1CCCC1 [Compound 69],C (less than 10% inhibition)

# Same assay, conditions: concentration 12.50 (unit not given)
row,SMILES,LpxC enzyme assay rating (% inhibition at indicated concentrations)
1,O=C(Nc1ccc(-c2ccccc2)cc1)[C@H](O)[C@@H](O)C(=O)N1CCCC1 [Compound 64],B (10-30% inhibition)
2,O=C(Nc1ccc(-c2ccc(C(F)(F)F)cc2)cc1)[C@H](O)[C@@H](O)C(=O)N1CCCC1 [Compound 65],B (10-30% inhibition)
3,CCCCc1ccc(NC(=O)[C@H](O)[C@@H](O)C(=O)N2CCCC2)cc1 [Compound 66],B (10-30% inhibition)
4,CCCc1ccc(NC(=O)[C@H](O)[C@@H](O)C(=O)N2CCCC2)cc1 [Compound 67],C (less than 10% inhibition)
5,CCC(C)c1ccc(NC(=O)[C@H](O)[C@@H](O)C(=O)N2CCCC2)cc1 (stereo partly drawn) [Compound 68],C (less than 10% inhibition)
6,O=C([C@H](O)[C@@H](O)C(=O)N1CCC(c2ccc(C(F)(F)F)cc2)CC1)N1CCCC1 [Compound 69],C (less than 10% inhibition)

# Same assay, conditions: concentration 25 (unit not given)
row,SMILES,LpxC enzyme assay rating (% inhibition at indicated concentrations)
1,O=C(Nc1ccc(-c2ccccc2)cc1)[C@H](O)[C@@H](O)C(=O)N1CCCC1 [Compound 64],B (10-30% inhibition)
2,O=C(Nc1ccc(-c2ccc(C(F)(F)F)cc2)cc1)[C@H](O)[C@@H](O)C(=O)N1CCCC1 [Compound 65],B (10-30% inhibition)
3,CCCCc1ccc(NC(=O)[C@H](O)[C@@H](O)C(=O)N2CCCC2)cc1 [Compound 66],A (greater than 30% inhibition)
4,CCCc1ccc(NC(=O)[C@H](O)[C@@H](O)C(=O)N2CCCC2)cc1 [Compound 67],B (10-30% inhibition)
5,CCC(C)c1ccc(NC(=O)[C@H](O)[C@@H](O)C(=O)N2CCCC2)cc1 (stereo partly drawn) [Compound 68],B (10-30% inhibition)
6,O=C([C@H](O)[C@@H](O)C(=O)N1CCC(c2ccc(C(F)(F)F)cc2)CC1)N1CCCC1 [Compound 69],C (less than 10% inhibition)

# Same assay, conditions: concentration 50 (unit not given)
row,SMILES,LpxC enzyme assay rating (% inhibition at indicated concentrations)
1,O=C(Nc1ccc(-c2ccccc2)cc1)[C@H](O)[C@@H](O)C(=O)N1CCCC1 [Compound 64],B (10-30% inhibition)
2,O=C(Nc1ccc(-c2ccc(C(F)(F)F)cc2)cc1)[C@H](O)[C@@H](O)C(=O)N1CCCC1 [Compound 65],B (10-30% inhibition)
3,CCCCc1ccc(NC(=O)[C@H](O)[C@@H](O)C(=O)N2CCCC2)cc1 [Compound 66],B (10-30% inhibition)
4,CCCc1ccc(NC(=O)[C@H](O)[C@@H](O)C(=O)N2CCCC2)cc1 [Compound 67],B (10-30% inhibition)
5,CCC(C)c1ccc(NC(=O)[C@H](O)[C@@H](O)C(=O)N2CCCC2)cc1 (stereo partly drawn) [Compound 68],B (10-30% inhibition)
6,O=C([C@H](O)[C@@H](O)C(=O)N1CCC(c2ccc(C(F)(F)F)cc2)CC1)N1CCCC1 [Compound 69],C (less than 10% inhibition)

# — patent US7553864B2, “Compounds for the treatment of inflammatory disorders and microbial diseases” (Schering Corporation, priority 2005, dated 2009)
